Patent US9034857B2 (Health Research, Inc., priority 2010, dated 2015)
Entries after “also recorded” stand apart in the source; their conditions may differ.

These compounds were tested on intracellular O2- in stationary phase budding yeast cells (assay: High throughput flow cytometry DHE screen for reduction of superoxide in stationary phase budding yeast). Settings: not given.
Format: cell-based, S. cerevisiae

Compound | decrease in superoxide signals (control compound) | dose dependency in re-screening (reduction of superoxide, DHE)
Nc1nc[nH]n1 [3-aminotriazol, reference compound] | more robust and reproducible decrease in superoxide signals | –
CC(C)(C)n1nc(-c2ccc(Cl)cc2)c2c(N)ncnc21 [MLS000326622, 1-tert-butyl-3-(4-chlorophenyl)pyrazolo[3,4-d]pyrimidin-4-amine] | – | identified by dose dependency; also recorded: exhibited dose dependency
O=c1cccc2[nH]c3ccccc3nc1-2 [MLS000737174, 5H-phenazin-1-one] | – | identified by dose dependency; also recorded: exhibited dose dependency
Nc1cc2nc3ccccc3nc2cc1N [MLS001044416, phenazine-2,3-diamine] | – | identified by dose dependency; also recorded: exhibited dose dependency
CNc1ccc2nc3ccccc3[n+](C)c2c1.[O-][Cl+3]([O-])([O-])[O-] [MLS001164912, N,10-dimethylphenazin-10-ium-2-amine perchlorate] | – | identified by dose dependency; also recorded: exhibited dose dependency
C=C1[C@@H](O)[C@@H]2O[C@]3(CC[C@H](/C=C/[C@@H](C)[C@@H]4CC(C)=C[C@@]5(O[C@H](C[C@@](C)(O)C(=O)O)CC[C@H]5O)O4)O3)CC[C@H]2O[C@@H]1[C@@H](O)C[C@H](C)[C@H]1O[C@@]2(CCCCO2)CC[C@H]1C [MLS002320508, (2R)-3-[(4S,10S)-4-[(E)-4-[(2S,2′R,4aS,6R,8aR)-4-hydroxy-2-[1-hydroxy-3-[(10S)-9-methyl-5,11-dioxaspiro[5.5]undecan-10-yl]butyl]-3-methylidenespiro[4a,7,8,8a-tetrahydro-4H-pyran[3,2-b]pyran-6,5′-oxolane]-2′-yl]but-3-en-2-yl]-7-hydroxy-2-methyl-5,11-dioxaspiro[5.5]undec-1-en-10-yl]-2-hydroxy-2-methylpropanoic acid] | – | identified by dose dependency; also recorded: exhibited dose dependency
C[C@]12CCC3C(CC[C@H]4C[C@@H](O)CC[C@]34C)[C@H]1CC[C@H]2O (stereo partly drawn) [MLS002554375, (3S,5S,10S,13S,14R,17R)-10,13-dimethyl-2,3,4,5,6,7,8,9,11,12,14,15,16,17-tetradecahydro-1H-cyclopenta[a]phenanthrene-3,17-diol] | – | identified by dose dependency; also recorded: exhibited dose dependency
C[C@]12CCC3C(CC[C@H]4C[C@H](O)CC[C@]34C)C1CCC2=O (stereo partly drawn) [MLS002554454, (3R,5S,10S,13S)-3-hydroxy-10,13-dimethyl-1,2,3,4,5,6,7,8,9,11,12,14,15,16-tetradecahydrocyclopenta[a]phenanthren-17-one] | – | identified by dose dependency; also recorded: exhibited dose dependency

Same assay, conditions: dose response assays from 0.004 uM to 30 uM; 7 day incubation, 7% glucose

Compound | dose dependency in re-screening (reduction of superoxide, DHE)
COc1ccc2c(c1)c1nnc(SC)nc1n2C [MLS000033501, 8-methoxy-5-methyl-3-methylsulfanyl-[1,2,4]triazino[5,6-b]indole] | identified by dose dependency; also recorded: exhibited dose dependency
CC(C)(C)Nc1ncnc2c1cnn2-c1ccccc1 [MLS000100785, N-tert-butyl-1-phenylpyrazolo[3,4-d]pyrimidin-4-amine] | identified by dose dependency; also recorded: exhibited dose dependency
O=C(/C=C/c1ccccc1)NC(=S)NNC(=O)Cc1cccs1 [MLS000121367, (E)-3-phenyl-N—[[(2-thiophen-2-ylacetyl)amino]carbamothioyl]prop-2-enamide] | identified by dose dependency; also recorded: exhibited dose dependency
CC(C)(C)n1nc(-c2ccc(F)cc2)c2c(N)ncnc21 [MLS000326584, 1-tert-butyl-3-(4-fluorophenyl)pyrazolo[3,4-d]pyrimidin-4-amine] | identified by dose dependency; also recorded: exhibited dose dependency
O=C(Nc1ccc2nc3ccccc3nc2c1)c1ccccc1 [MLS000418506, N-phenazin-2-ylbenzamide] | identified by dose dependency; also recorded: exhibited dose dependency
COc1ccc2c3c(cccc13)N(C)N=C2C [MLS000554700, 6-Methoxy-1,3-dimethyl-1H-benzo[de]cinnoline] | identified by dose dependency; also recorded: exhibited dose dependency
c1ccc2nc3ccccc3nc2c1 [MLS000584128, phenazine] | identified by dose dependency; also recorded: exhibited dose dependency
CCN(CC)C(=O)c1ccc2nc3ccccc3nc2c1 [MLS000595212, N,N-diethylphenazine-2-carboxamide] | identified by dose dependency; also recorded: exhibited dose dependency
C=CCSc1nnc(-c2ccc([N+](=O)[O-])cc2)o1 [MLS000662516, 2-(4-nitrophenyl)-5-prop-2-enylsulfanyl-1,3,4-oxadiazole] | identified by dose dependency; also recorded: exhibited dose dependency
C#CCSc1nnc(-c2ccc([N+](=O)[O-])cc2)o1 [MLS000663774, 2-(4-nitrophenyl)-5-prop-2-ynylsulfanyl-1,3,4-oxadiazole] | identified by dose dependency; also recorded: exhibited dose dependency
COc1cccc2nc3cc(C)c(C)cc3nc12 [MLS000756830, 1-methoxy-7,8-dimethylphenazine] | identified by dose dependency; also recorded: exhibited dose dependency
COc1ccc2nc3ccccc3nc2c1 [MLS000768124, 2-methoxyphenazine] | identified by dose dependency; also recorded: exhibited dose dependency
OCC[n+]1c2ccccc2nc2ccc(N3CCOCC3)cc21 [MLS000768911, 2-(3-morpholin-4-ylphenazin-5-ium-5-yl)ethanolperchlorate] | identified by dose dependency; also recorded: exhibited dose dependency
CCC(Nc1ccccc1O)=C1C(=O)CC(c2ccccc2)CC1=O (centres unmarked) [MLS000779260, 2-[1-(2-hydroxyanilino)propylidene]-5-phenylcyclohexane-1,3-dione] | identified by dose dependency; also recorded: exhibited dose dependency
CSc1nnc(-c2ccc([N+](=O)[O-])cc2)o1 [MLS000855890, 2-methylsulfanyl-5-(4-nitrophenyl)-1,3,4-oxadiazole] | identified by dose dependency; also recorded: exhibited dose dependency
COC(=O)c1cccc2nc3c(C(C)O)cccc3nc12 (centres unmarked) [MLS000863638, methyl 6-(1-hydroxyethyl)phenazine-1-carboxylate] | identified by dose dependency; also recorded: exhibited dose dependency
O=C(c1cccc2nc3ccccc3nc12)N1CCOCC1 [MLS001044337, morpholin-4-yl(phenazin-1-yl)methanone] | identified by dose dependency; also recorded: exhibited dose dependency
COc1ccc2nc3ccccc3nc2c1N [MLS001044341, 2-methoxyphenazin-1-amine] | identified by dose dependency; also recorded: exhibited dose dependency
CNC(=O)c1cccc2nc3ccccc3nc12 [MLS001044346, N-methylphenazine-1-carboxamide] | identified by dose dependency; also recorded: exhibited dose dependency
CC(=O)Nc1ccc2nc3ccccc3nc2c1 [MLS001044354, N-phenazin-2-ylacetamide] | identified by dose dependency; also recorded: exhibited dose dependency
COc1ccc2nc3ccccc3nc2c1 [MLS001048992, 2-methoxyphenazine] | identified by dose dependency; also recorded: exhibited dose dependency
FC(F)(F)c1nc2cc3nc4ccccc4nc3cc2[nH]1 [MLS001049309, 2-(trifluoromethyl)-1H-imidazo[4,5-b]phenazine] | identified by dose dependency; also recorded: exhibited dose dependency
CC(C)OC(=O)c1ccc2nc3ccccc3nc2c1 [MLS001173415, propan-2-yl phenazine-2-carboxylate] | identified by dose dependency; also recorded: exhibited dose dependency
CC(=NNc1ncnc2sc(C)c(C)c12)c1ccccn1 [MLS001176565, 5,6-dimethyl-N-(1-pyridin-2-ylethylideneamino)thieno[2,3-d]pyrimidin-4-amine] | identified by dose dependency; also recorded: exhibited dose dependency
O=c1ccc2[n+]([O-])c3ccccc3n(O)c-2c1 [MLS001208198, 10-hydroxy-5-oxidophenazin-5-ium-2-one] | identified by dose dependency; also recorded: exhibited dose dependency
C[C@]12CCC3C(CC[C@H]4C[C@H](O)CC[C@]34C)C1C[C@@H](CCCCl)[C@@H]2O (stereo partly drawn) [MLS002554453, (3R,5S,10S,13S,16R,17S)-16-(3-chloropropyl)-10,13-dimethyl-2,3,4,5,6,7,8,9,11,12,14,15,16,17-tetradecahydro-1H-cyclopenta[a]phenanthrene-3,17-diol] | identified by dose dependency; also recorded: exhibited dose dependency
COc1ccc2nc3ccccc3[n+]([O-])c2c1 [MLS002638803, 2-methoxy-10-oxidophenazin-10-ium] | identified by dose dependency; also recorded: exhibited dose dependency
